Data published in article PMC9693455, “Synthesis of Tetrasubstituted Phosphorus Analogs of Aspartic Acid as Antiproliferative Agents” (Molecules, 2022).

Legend:
[1] = system: SKOV3 (human ovarian carcinoma) cells; test: In vitro cytotoxicity (antiproliferative activity), CCK-8 assay, SKOV3; type: cell-based; details: for IC50: Homo sapiens, SK-OV-3, 48 h exposure, CCK-8
Description: (§1) In vitro cytotoxicity of the phosphorated aspartic acid derivatives was evaluated by testing their antiproliferative activities against several human cancer cell lines. Cell counting kit (CCK-8) assay was used for the evaluation of growth inhibition. […] In addition, trisubstituted aminophosphonate 9a (Imine precursor, R^1 = H, R^2 = P(O)(OMe)2) and tetrasubstituted aminophosphonate 18 (R^1 = Me, R^2 = P(O)(OMe)2) are used as templates in order to evaluate the effect of the substituents (Table 1).
(§2) Human epithelial lung carcinoma cells (A549) (ATCC® CCL-185™, ATCC, Manassas, VA, USA) were grown in Kaighn’s Modification of Ham’s F-12 Medium (ATCC® 30-2004™, ATCC, Manassas, VA, USA) and lung fibroblast cells (MRC5) (ATCC® CCL-171™, ATCC, Manassas, VA, USA) were grown in Eagle’s Minimum Essential Medium (EMEM, ATCC® 30-2003™, ATCC, Manassas, VA, USA). Epithelial ovary adenocarcinoma cells (SKOV3) (ATCC® HTB-77™, ATCC, Manassas, VA, USA) were grown in McCoy’s 5A medium (ATCC® 30-2007™, ATCC, Manassas, VA, USA). All of them were supplemented with 10% of fetal bovine serum (FBS) (Sigma-Aldrich, Madrid, Spain) and with 1% of NORMOCIN solution (Thermo Fisher, Waltham, MA, USA). Cells were incubated at 37 °C and 5% CO2 atmosphere, and were split every 3–4 days to maintain monolayer coverage. For the cytotoxicity experiments, the A549 and SKOV3 cells were seeded in 96-well plates at a density of 2.5–3 × 10^3 cells per well and incubated overnight to achieve 70% of confluence at the time of exposition to the cytotoxic compound.
(§3) Cells were exposed to different concentrations of the cytotoxic compounds and were incubated for 48 h. Then, 10 µL of cell counting kit-8 was added into each well for an additional two hours’ incubation at 37 °C. The absorbance of each well was determined by an Automatic Elisa Reader System (Thermo Scientific Multiskan FC Automatic Elisa Reader System, Thermo Scientific, Shanghai, China) at 450 nm wavelength.

[2] = system: MRC5 lung fibroblast cells; test: Selective toxicity, CCK-8 assay, non-malignant MRC5 lung fibroblasts; type: cell-based; details: for IC50: Homo sapiens, non-malignant MRC5 lung fibroblasts, 48 h exposure, CCK-8
Description: as §1, §2, §3

[3] = system: A549 (carcinomic human alveolar basal epithelial) cells; test: In vitro cytotoxicity (antiproliferative activity), CCK-8 assay, A549; type: cell-based; details: for IC50: 48 h exposure, CCK-8
Description: as §1, §2, §3

CCOC(=O)CC(NS(=O)(=O)c1ccc(C)cc1)(c1ccccc1)P(=O)(OC)OC (stereo not shown) [7a, Ethyl 3-(dimethoxyphosphoryl)-3-((4-methylphenyl)sulfonamido)-3-phenylpropanoate]
IC50 [1]: > 50 µM
IC50 [2]: > 50 µM
melting point: 98 to 99 °C
IC50 ([3]; Homo sapiens, A549, 48 h): 2.66 ± 0.26 µM

CCOC(=O)CC(NS(=O)(=O)c1ccc(C)cc1)(c1ccc(C)cc1)P(=O)(OC)OC (stereo not shown) [7b, Ethyl 3-(dimethoxyphosphoryl)-3-((4-methylphenyl)sulfonamido)-3-(p-tolyl)propanoate]
cytotoxicity against SKOV3 cell line (in words) [1]: no activity
IC50 [1]: > 50 µM
IC50 [2]: 29.6 ± 2.98 µM
toxicity toward MRC5 non-malignant cells (in words) [2]: some toxicity
melting point: 117 to 118 °C
IC50 ([3]; Homo sapiens, A549, 48 h): 0.34 ± 0.04 µM

CCOC(=O)CC(NS(=O)(=O)c1ccc(C)cc1)(c1cccc(C)c1)P(=O)(OC)OC (stereo not shown) [7c, Ethyl 3-(dimethoxyphosphoryl)-3-((4-methylphenyl)sulfonamido)-3-(m-tolyl)propanoate]
cytotoxicity against SKOV3 cell line (in words) [1]: no activity
IC50 [1]: > 50 µM
IC50 [2]: > 50 µM
melting point: 103 to 104 °C
IC50 ([3]; Homo sapiens, A549, 48 h): 2 ± 0.52 µM

CCOC(=O)CC(NS(=O)(=O)c1ccc(C)cc1)(c1ccc(SC(Cl)(Cl)Cl)cc1)P(=O)(OC)OC (stereo not shown) [7d, Ethyl 3-(dimethoxyphosphoryl)-3-((4-methylphenyl)sulfonamido)-3-(4-((trichloromethyl)thio)phenyl)propanoate]
IC50 [1]: 6.43 ± 0.64 µM
IC50 [2]: 2.47 ± 0.3 µM
melting point: 123 to 124 °C
IC50 ([3]; Homo sapiens, A549, 48 h): 4.41 ± 0.29 µM

CCOC(=O)CC(NS(=O)(=O)c1ccc(C)cc1)(c1ccc(Br)cc1)P(=O)(OC)OC (stereo not shown) [7e, Ethyl 3-(4-bromophenyl)-3-(dimethoxyphosphoryl)-3-((4-methylphenyl)sulfonamido)propanoate]
IC50 [1]: > 50 µM
IC50 [2]: > 50 µM
melting point: 138 to 139 °C
IC50 ([3]; Homo sapiens, A549, 48 h): 1.08 ± 0.09 µM

CCOC(=O)CC(NS(=O)(=O)c1ccc(C)cc1)(c1ccc(Cl)cc1)P(=O)(OC)OC (stereo not shown) [7f, Ethyl 3-(4-chlorophenyl)-3-(dimethoxyphosphoryl)-3-((4-methylphenyl)sulfonamido)propanoate]
IC50 [1]: 24.1 ± 1.45 µM
IC50 [2]: > 50 µM
melting point: 133 to 134 °C
IC50 ([3]; Homo sapiens, A549, 48 h): 3.09 ± 0.14 µM

CCOC(=O)CC(NS(=O)(=O)c1ccc(C)cc1)(c1cccc(Cl)c1)P(=O)(OC)OC (stereo not shown) [7g, Ethyl 3-(3-chlorophenyl)-3-(dimethoxyphosphoryl)-3-((4-methylphenyl)sulfonamido)propanoate]
IC50 [1]: > 50 µM
IC50 [2]: 38.1 ± 1.61 µM
toxicity toward MRC5 non-malignant cells (in words) [2]: toxic against the healthy cells
melting point: 88 to 89 °C
IC50 ([3]; Homo sapiens, A549, 48 h): 2.96 ± 0.34 µM

CCOC(=O)CC(NS(=O)(=O)c1ccc(C)cc1)(c1ccc(Cl)c(Cl)c1)P(=O)(OC)OC (stereo not shown) [7h, Ethyl 3-(3,4-dichlorophenyl)-3-(dimethoxyphosphoryl)-3-((4-methylphenyl)sulfonamido)propanoate]
IC50 [1]: 6.94 ± 0.63 µM
IC50 [2]: 11.3 ± 1.16 µM
melting point: 109 to 110 °C
IC50 ([3]; Homo sapiens, A549, 48 h): 1.05 ± 0.42 µM

CCOC(=O)CC(NS(=O)(=O)c1ccc(C)cc1)(c1ccc(OC)c(Cl)c1)P(=O)(OC)OC (stereo not shown) [7i, Ethyl 3-(3-chloro-4-methoxyphenyl)-3-(dimethoxyphosphoryl)-3-((4-methylphenyl)sulfonamido)propanoate]
IC50 [1]: > 50 µM
IC50 [2]: > 50 µM
melting point: 153 to 154 °C
IC50 ([3]; Homo sapiens, A549, 48 h): 1.44 ± 0.15 µM

CCOC(=O)CC(NS(=O)(=O)c1ccc(C)cc1)(c1ccc(F)cc1)P(=O)(OC)OC (stereo not shown) [7j, Ethyl 3-(dimethoxyphosphoryl)-3-(4-fluorophenyl)-3-((4-methylphenyl)sulfonamido)propanoate]
IC50 [1]: > 50 µM
IC50 [2]: > 50 µM
melting point: 111 to 112 °C
IC50 ([3]; Homo sapiens, A549, 48 h): 7.15 ± 0.24 µM

CCOC(=O)CC(NS(=O)(=O)c1ccc(C)cc1)(c1cccc(F)c1)P(=O)(OC)OC (stereo not shown) [7k, Ethyl 3-(dimethoxyphosphoryl)-3-(3-fluorophenyl)-3-((4-methylphenyl)sulfonamido)propanoate]
IC50 [1]: > 50 µM
IC50 [2]: > 50 µM
melting point: 111 to 112 °C
IC50 [3]: 0.59 ± 0.09 µM
IC50 ([3]; Homo sapiens, A549, 48 h): 0.34 µM

CCOC(=O)CC(NS(=O)(=O)c1ccc(C)cc1)(c1ccccc1F)P(=O)(OC)OC (stereo not shown) [7l, Ethyl 3-(dimethoxyphosphoryl)-3-(2-fluorophenyl)-3-((4-methylphenyl)sulfonamido)propanoate]
IC50 [1]: > 50 µM
IC50 [2]: > 50 µM
melting point: 140 to 141 °C
IC50 ([3]; Homo sapiens, A549, 48 h): 0.9 ± 0.12 µM

CCOC(=O)CC(NS(=O)(=O)c1ccc(C)cc1)(c1c(F)c(F)c(F)c(F)c1F)P(=O)(OC)OC (stereo not shown) [7o, Ethyl 3-(dimethoxyphosphoryl)-3-((4-methylphenyl)sulfonamido)-3-(perfluorophenyl)propanoate]
IC50 [1]: 20.5 ± 2.75 µM
IC50 [2]: > 50 µM
IC50 ([3]; Homo sapiens, A549, 48 h): 3.65 ± 0.21 µM

COP(=O)(OC)C(NS(=O)(=O)c1ccc(C)cc1)c1ccccc1 (stereo not shown) [9a]
IC50 [1]: > 50 µM
IC50 [2]: > 50 µM
IC50 ([3]; Homo sapiens, A549, 48 h): 17.6 ± 1.3 µM

COP(=O)(OC)C(CC(=O)OCc1ccccc1)(NS(=O)(=O)c1ccc(C)cc1)c1cccc(F)c1 (stereo not shown) [13a, Benzyl 3-(dimethoxyphosphoryl)-3-(3-fluorophenyl)-3-((4-methylphenyl)sulfonamido)propanoate]
cytotoxicity against SKOV3 cell line (in words) [1]: no toxicity
IC50 [1]: > 50 µM
melting point: 78 to 79 °C
IC50 ([3]; Homo sapiens, A549, 48 h): 12.8 ± 2.38 µM

CCOC(=O)C[C@](NS(=O)(=O)c1ccc(C)cc1)(c1cccc(F)c1)P(=O)(OC)OC [(R)-7k]
IC50 ([3]; Homo sapiens, A549, 48 h): 1.61 ± 0.2 µM

CCOC(=O)C[C@@](NS(=O)(=O)c1ccc(C)cc1)(c1cccc(F)c1)P(=O)(OC)OC [(S)-7k]
IC50 ([3]; Homo sapiens, A549, 48 h): 1.56 ± 0.39 µM

COc1cccc2c1C(=O)c1c(O)c3c(c(O)c1C2=O)C[C@@](O)(C(=O)CO)C[C@@H]3O[C@H]1C[C@H](N)[C@H](O)[C@H](C)O1 [Doxorubicin, reference compound]
IC50 ([3]; Homo sapiens): < 0.1 µM

CCOC(=O)CC(NS(=O)(=O)c1ccc(C)cc1)c1ccccc1 (stereo not shown) [compound 5, Ethyl 3-((4-methylphenyl)sulfonamido)-3-phenylpropanoate]
IC50 [1]: > 50 µM
IC50 [2]: > 50 µM
IC50 ([3]; Homo sapiens): 18.7 ± 2.16 µM

CCOC(=O)CC(NS(=O)(=O)c1ccc(C)cc1)(C(=O)OCC)c1ccccc1 (stereo not shown) [compound 6, Diethyl 2-((4-methylphenyl)sulfonamido)-2-phenylsuccinate]
IC50 [1]: > 50 µM
IC50 [2]: > 50 µM
IC50 ([3]; Homo sapiens): 14.2 ± 0.41 µM

COC(=O)CC(NS(=O)(=O)c1ccc(C)cc1)(c1cccc(F)c1)P(=O)(OC)OC (stereo not shown) [compound 12, Methyl 3-(dimethoxyphosphoryl)-3-(3-fluorophenyl)-3-((4-methylphenyl)sulfonamido)propanoate]
cytotoxicity against SKOV3 cell line (in words) [1]: no toxicity
IC50 [1]: > 50 µM
melting point: 115 to 116 °C
IC50 ([3]; Homo sapiens, A549, 48 h): 24.1 ± 4.01 µM

COP(=O)(OC)C(CC(=O)O)(NS(=O)(=O)c1ccc(C)cc1)c1ccccc1 (stereo not shown) [compound 14, 3-(Dimethoxyphosphoryl)-3-((4-methylphenyl)sulfonamido)-3-phenylpropanoic acid]
IC50 [1]: > 50 µM
IC50 [2]: > 50 µM
IC50 ([3]; Homo sapiens, A549, 48 h): 20.6 ± 1.05 µM

COP(=O)(OC)C(C)(NS(=O)(=O)c1ccc(C)cc1)c1ccccc1 (stereo not shown) [compound 18, Dimethyl (1-((4-methylphenyl)sulfonamido)-1-phenylethyl)phosphonate]
IC50 [1]: > 50 µM
cytotoxicity against A549 cell line (in words) [3]: no cytotoxicity
IC50 ([3]; Homo sapiens, A549, 48 h): > 50 µM
